Data from ChEMBL document CHEMBL4387741, “Optimization of novel reversible Bruton's tyrosine kinase inhibitors identified using Tethering-fragment-based screens” (Bioorg Med Chem, 2019).

Key:
[1] = target: 5'-AMP-activated protein kinase catalytic subunit alpha-2 (Homo sapiens) (UniProt P54646); assay: Inhibition of wild-type human partial length AMPK alpha2 (M1 to E306 residues) expressed in bacterial expression system at 1 uM by Kinomescan method relative to control
[2] = target: Tyrosine-protein kinase Blk (Homo sapiens) (UniProt P51451); assay: Inhibition of wild-type human partial length BLK (G211 to L503 residues) expressed in bacterial expression system at 1 uM by Kinomescan method relative to control
[3] = target: Bone morphogenetic protein receptor type-1A (Homo sapiens) (UniProt P36894); assay: Inhibition of wild-type human partial length BMPR1A (Q214 to I532 residues) expressed in bacterial expression system at 1 uM by Kinomescan method relative to control
Bone morphogenetic protein receptor type-1A (Homo sapiens), sequence (P36894 whole entry, the tested form may be a part): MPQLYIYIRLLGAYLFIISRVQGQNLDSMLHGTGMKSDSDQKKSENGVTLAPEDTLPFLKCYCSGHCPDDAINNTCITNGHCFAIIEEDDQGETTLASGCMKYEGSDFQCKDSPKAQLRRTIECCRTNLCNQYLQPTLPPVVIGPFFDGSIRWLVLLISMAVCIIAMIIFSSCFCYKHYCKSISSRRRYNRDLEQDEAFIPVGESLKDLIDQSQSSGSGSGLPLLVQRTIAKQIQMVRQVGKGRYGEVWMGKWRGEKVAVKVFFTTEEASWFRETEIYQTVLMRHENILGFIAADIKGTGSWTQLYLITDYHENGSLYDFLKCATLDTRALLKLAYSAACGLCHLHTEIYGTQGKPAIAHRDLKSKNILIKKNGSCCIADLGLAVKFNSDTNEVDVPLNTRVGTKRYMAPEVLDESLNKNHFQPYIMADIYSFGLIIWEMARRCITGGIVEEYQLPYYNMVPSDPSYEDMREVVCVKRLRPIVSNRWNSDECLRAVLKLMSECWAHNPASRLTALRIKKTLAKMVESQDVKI

[4] = target: Calcium/calmodulin-dependent protein kinase type II subunit gamma (Homo sapiens) (UniProt Q13555); assay: Inhibition of wild-type human partial length CAMK2G (R9 to A303 residues) expressed in bacterial expression system at 1 uM by Kinomescan method relative to control
[5] = system: Epidermal growth factor receptor (Homo sapiens), P00533 [G719C]; assay: Inhibition of human partial length EGFR G719C mutant (R669 to V1011 residues) expressed in bacterial expression system at 1 uM by Kinomescan method relative to control
[6] = target: Mitogen-activated protein kinase 7 (Homo sapiens) (UniProt Q13164); assay: Inhibition of wild-type human partial length ERK5 (M1 to A409 residues) expressed in bacterial expression system at 1 uM by Kinomescan method relative to control
[7] = target: Fibroblast growth factor receptor 2 (Homo sapiens) (UniProt P21802); assay: Inhibition of wild-type human partial length FGFR2 (D457 to E769 residues) expressed in bacterial expression system at 1 uM by Kinomescan method relative to control
[8] = target: Serine/threonine-protein kinase haspin (Homo sapiens) (UniProt Q8TF76); assay: Inhibition of wild-type human partial length HASPIN (I452 to K798 residues) expressed in mammalian expression system at 1 uM by Kinomescan method relative to control
[9] = target: Homeodomain-interacting protein kinase 1 (Homo sapiens) (UniProt Q86Z02); assay: Inhibition of wild-type human partial length HIPK1 (M146 to I555 residues) expressed in mammalian expression system at 1 uM by Kinomescan method relative to control
[10] = target: Leucine-rich repeat serine/threonine-protein kinase 2 (Homo sapiens) (UniProt Q5S007); assay: Inhibition of wild-type human partial length LRRK2 (H970 to E2527 residues) expressed in mammalian expression system at 1 uM by Kinomescan method relative to control
[11] = target: Serine/threonine-protein kinase 4 (Homo sapiens) (UniProt Q13043); assay: Inhibition of wild-type human full length MST1 (M1 to F487 residues) expressed in bacterial expression system at 1 uM by Kinomescan method relative to control
[12] = target: Serine/threonine-protein kinase mTOR (Homo sapiens) (UniProt P42345); assay: Inhibition of wild-type human partial length MTOR (L1382 to W2549 residues) expressed in mammalian expression system at 1 uM by Kinomescan method relative to control
[13] = target: Serine/threonine-protein kinase Nek7 (Homo sapiens) (UniProt Q8TDX7); assay: Inhibition of wild-type human full length NEK7 (M1 to S302 residues) expressed in bacterial expression system at 1 uM by Kinomescan method relative to control
[14] = target: Serine/threonine-protein kinase ULK3 (Homo sapiens) (UniProt Q6PHR2); assay: Inhibition of wild-type human partial length ULK3 (M1 to Q290 residues) expressed in mammalian expression system at 1 uM by Kinomescan method relative to control
[15] = target: Serine/threonine-protein kinase 32B (Homo sapiens) (UniProt Q9NY57); assay: Inhibition of wild-type human full length YANK2 (M1 to S414 residues) expressed in bacterial expression system at 1 uM by Kinomescan method relative to control
[16] = target: RAC-gamma serine/threonine-protein kinase (Homo sapiens) (UniProt Q9Y243); assay: Inhibition of wild-type human partial length AKT3 expressed in bacterial expression system at 10 uM by Kinomescan method relative to control
[17] = target: 5'-AMP-activated protein kinase catalytic subunit alpha-1 (Homo sapiens) (UniProt Q13131); assay: Inhibition of wild-type human partial length AMPK alpha1 (M1 to E306 residues) expressed in bacterial expression system at 10 uM by Kinomescan method relative to control
[18] = target: Epidermal growth factor receptor (Homo sapiens) (UniProt P00533); assay: Inhibition of wild-type human partial length EGFR (R669 to V1011 residues) expressed in bacterial expression system at 10 uM by Kinomescan method relative to control
Epidermal growth factor receptor (Homo sapiens), sequence (P00533 whole entry, the tested form may be a part): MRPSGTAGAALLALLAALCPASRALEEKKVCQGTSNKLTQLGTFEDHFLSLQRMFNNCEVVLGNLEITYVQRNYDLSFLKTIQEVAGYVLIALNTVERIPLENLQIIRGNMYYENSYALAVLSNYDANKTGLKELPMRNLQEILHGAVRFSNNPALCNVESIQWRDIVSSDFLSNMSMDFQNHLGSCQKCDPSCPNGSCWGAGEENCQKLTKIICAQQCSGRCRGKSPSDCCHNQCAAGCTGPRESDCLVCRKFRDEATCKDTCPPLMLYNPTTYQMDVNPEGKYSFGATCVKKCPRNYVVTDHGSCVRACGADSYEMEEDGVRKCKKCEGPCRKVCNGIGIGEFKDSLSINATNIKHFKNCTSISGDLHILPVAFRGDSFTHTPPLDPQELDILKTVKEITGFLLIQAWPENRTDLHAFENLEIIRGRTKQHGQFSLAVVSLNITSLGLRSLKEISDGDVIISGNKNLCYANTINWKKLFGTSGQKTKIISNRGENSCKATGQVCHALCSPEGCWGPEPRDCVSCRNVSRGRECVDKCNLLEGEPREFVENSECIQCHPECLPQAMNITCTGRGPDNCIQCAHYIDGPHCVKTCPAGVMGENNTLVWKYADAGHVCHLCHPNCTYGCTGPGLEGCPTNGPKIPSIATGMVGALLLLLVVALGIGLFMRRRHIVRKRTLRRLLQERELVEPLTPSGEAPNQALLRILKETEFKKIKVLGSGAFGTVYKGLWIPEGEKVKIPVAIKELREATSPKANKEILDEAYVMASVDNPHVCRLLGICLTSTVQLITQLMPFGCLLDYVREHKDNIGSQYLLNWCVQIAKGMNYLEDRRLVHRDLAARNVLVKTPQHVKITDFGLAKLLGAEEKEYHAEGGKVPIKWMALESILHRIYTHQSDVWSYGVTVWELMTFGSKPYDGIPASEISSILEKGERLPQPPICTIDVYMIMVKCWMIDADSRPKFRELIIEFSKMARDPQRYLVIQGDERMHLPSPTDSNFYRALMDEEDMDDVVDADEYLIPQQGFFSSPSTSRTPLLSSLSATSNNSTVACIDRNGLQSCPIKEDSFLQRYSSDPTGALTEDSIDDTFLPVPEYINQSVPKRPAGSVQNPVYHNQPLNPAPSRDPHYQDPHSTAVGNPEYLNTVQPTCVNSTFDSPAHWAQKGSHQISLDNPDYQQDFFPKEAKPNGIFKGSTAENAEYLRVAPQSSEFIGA

[19] = target: Receptor tyrosine-protein kinase erbB-2 (Homo sapiens) (UniProt P04626); assay: Inhibition of wild-type human partial length ERBB2 (K646 to V1225 residues) expressed in mammalian expression system at 10 uM by Kinomescan method relative to control
[20] = target: Receptor tyrosine-protein kinase erbB-4 (Homo sapiens) (UniProt Q15303); assay: Inhibition of wild-type human partial length ERBB4 (L690 to K994 residues) expressed in bacterial expression system at 10 uM by Kinomescan method relative to control
[21] = target: Homeodomain-interacting protein kinase 4 (Homo sapiens) (UniProt Q8NE63); assay: Inhibition of wild-type human partial length HIPK4 (M1 to V384 residues) expressed in bacterial expression system at 10 uM by Kinomescan method relative to control
Homeodomain-interacting protein kinase 4 (Homo sapiens), sequence (Q8NE63 whole entry, the tested form may be a part): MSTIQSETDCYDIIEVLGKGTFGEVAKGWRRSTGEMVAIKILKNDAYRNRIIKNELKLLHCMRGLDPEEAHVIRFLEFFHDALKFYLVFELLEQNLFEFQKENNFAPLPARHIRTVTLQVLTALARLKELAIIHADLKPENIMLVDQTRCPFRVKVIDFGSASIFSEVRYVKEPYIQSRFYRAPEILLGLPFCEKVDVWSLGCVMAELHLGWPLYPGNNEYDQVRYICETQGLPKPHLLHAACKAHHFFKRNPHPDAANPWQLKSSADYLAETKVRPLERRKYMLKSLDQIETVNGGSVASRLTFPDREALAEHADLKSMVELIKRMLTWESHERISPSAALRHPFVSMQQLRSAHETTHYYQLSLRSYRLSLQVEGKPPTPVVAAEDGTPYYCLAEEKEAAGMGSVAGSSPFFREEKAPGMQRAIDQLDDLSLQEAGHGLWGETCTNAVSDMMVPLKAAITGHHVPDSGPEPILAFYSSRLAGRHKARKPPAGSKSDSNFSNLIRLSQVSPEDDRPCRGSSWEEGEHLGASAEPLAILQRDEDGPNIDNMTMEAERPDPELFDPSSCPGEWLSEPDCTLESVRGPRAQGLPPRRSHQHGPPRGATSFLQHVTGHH

[22] = target: Insulin receptor-related protein (Homo sapiens) (UniProt P14616); assay: Inhibition of wild-type human partial length INSRR (R950 to E1278 residues) expressed in bacterial expression system at 10 uM by Kinomescan method relative to control
[23] = target: Tyrosine-protein kinase Lck (Homo sapiens) (UniProt P06239); assay: Inhibition of wild-type human partial length LCK (R207 to P509 residues) expressed in bacterial expression system at 10 uM by Kinomescan method relative to control
Tyrosine-protein kinase Lck (Homo sapiens), sequence (P06239 2-509 limits assumed): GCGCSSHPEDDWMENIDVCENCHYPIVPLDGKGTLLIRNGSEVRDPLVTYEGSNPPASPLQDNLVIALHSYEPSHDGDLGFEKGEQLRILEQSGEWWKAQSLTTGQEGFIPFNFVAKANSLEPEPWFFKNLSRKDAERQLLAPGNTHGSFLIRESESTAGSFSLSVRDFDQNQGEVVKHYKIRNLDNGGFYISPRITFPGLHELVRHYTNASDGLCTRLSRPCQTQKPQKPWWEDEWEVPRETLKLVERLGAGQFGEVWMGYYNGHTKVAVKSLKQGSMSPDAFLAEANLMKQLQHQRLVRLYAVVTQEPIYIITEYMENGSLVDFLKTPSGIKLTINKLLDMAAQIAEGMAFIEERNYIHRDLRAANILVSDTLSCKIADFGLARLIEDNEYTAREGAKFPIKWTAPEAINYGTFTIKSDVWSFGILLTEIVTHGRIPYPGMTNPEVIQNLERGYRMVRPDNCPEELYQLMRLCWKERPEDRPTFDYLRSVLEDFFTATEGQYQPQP

[24] = target: Dual specificity mitogen-activated protein kinase kinase 5 (Homo sapiens) (UniProt Q13163); assay: Inhibition of wild-type human partial length MEK5 (L98 to P448 residues) expressed in mammalian expression system at 10 uM by Kinomescan method relative to control
Dual specificity mitogen-activated protein kinase kinase 5 (Homo sapiens), sequence (Q13163 whole entry, the tested form may be a part): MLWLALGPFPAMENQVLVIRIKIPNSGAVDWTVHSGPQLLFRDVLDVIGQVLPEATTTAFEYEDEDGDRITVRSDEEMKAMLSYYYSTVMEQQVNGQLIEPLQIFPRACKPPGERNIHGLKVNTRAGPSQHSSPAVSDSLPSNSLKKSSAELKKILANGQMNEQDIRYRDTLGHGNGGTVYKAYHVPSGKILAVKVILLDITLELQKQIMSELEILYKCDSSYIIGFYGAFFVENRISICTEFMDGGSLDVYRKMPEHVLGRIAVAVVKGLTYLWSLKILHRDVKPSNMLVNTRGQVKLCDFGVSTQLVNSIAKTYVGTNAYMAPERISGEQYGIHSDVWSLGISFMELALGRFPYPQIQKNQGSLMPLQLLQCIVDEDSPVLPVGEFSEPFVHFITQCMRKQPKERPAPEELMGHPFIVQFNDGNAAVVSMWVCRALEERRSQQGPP

[25] = target: Phosphatidylinositol 3-kinase C2 domain-containing subunit gamma (Homo sapiens) (UniProt O75747); assay: Inhibition of wild-type human partial length PIK3C2G (M1 to I1446 residues) expressed in mammalian expression system at 10 uM by Kinomescan method relative to control
Phosphatidylinositol 3-kinase C2 domain-containing subunit gamma (Homo sapiens), sequence (O75747 whole entry, the tested form may be a part): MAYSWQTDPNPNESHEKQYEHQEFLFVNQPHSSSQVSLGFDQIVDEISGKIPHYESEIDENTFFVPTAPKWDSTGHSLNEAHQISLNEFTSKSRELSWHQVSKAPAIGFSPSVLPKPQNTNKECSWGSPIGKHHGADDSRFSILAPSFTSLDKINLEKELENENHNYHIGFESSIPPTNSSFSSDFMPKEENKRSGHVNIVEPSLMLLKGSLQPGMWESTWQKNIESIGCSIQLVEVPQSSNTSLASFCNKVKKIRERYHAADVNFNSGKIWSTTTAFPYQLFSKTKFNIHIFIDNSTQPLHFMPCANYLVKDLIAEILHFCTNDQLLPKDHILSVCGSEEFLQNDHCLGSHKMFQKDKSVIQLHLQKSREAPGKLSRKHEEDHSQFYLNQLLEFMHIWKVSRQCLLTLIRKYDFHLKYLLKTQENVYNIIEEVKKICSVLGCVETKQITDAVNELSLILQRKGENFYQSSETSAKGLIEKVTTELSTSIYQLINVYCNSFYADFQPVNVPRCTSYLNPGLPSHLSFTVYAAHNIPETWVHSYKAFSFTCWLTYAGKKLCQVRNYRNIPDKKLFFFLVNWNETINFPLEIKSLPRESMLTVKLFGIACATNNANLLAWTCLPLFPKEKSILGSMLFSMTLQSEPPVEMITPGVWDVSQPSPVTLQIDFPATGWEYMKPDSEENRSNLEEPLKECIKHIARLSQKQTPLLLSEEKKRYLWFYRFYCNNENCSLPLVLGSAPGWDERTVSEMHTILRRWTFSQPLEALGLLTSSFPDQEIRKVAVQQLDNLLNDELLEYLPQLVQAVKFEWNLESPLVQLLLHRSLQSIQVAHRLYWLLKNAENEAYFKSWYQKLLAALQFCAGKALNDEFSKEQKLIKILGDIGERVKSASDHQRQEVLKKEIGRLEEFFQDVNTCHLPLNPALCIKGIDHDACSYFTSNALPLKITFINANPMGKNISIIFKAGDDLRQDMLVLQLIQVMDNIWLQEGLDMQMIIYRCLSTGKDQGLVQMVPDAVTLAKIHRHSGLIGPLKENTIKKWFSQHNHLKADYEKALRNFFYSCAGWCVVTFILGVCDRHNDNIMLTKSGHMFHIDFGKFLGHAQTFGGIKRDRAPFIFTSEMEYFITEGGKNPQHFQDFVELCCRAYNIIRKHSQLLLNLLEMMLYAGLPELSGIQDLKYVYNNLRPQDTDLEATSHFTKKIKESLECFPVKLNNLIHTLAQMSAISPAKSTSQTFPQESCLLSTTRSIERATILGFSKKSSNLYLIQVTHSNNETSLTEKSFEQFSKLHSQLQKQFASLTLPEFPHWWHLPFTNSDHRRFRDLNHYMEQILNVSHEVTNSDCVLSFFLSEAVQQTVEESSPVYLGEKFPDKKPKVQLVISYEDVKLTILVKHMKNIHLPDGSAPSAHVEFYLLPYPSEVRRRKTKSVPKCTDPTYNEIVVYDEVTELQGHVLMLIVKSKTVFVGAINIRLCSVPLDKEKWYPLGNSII

[26] = target: Serine/threonine-protein kinase 35 (Homo sapiens) (UniProt Q8TDR2); assay: Inhibition of wild-type human partial length STK35 (G182 to A534 residues) expressed in bacterial expression system at 10 uM by Kinomescan method relative to control
[27] = target: Mitogen-activated protein kinase kinase kinase 7 (Homo sapiens) (UniProt O43318); assay: Inhibition of wild-type human partial length TAK1 (M1 to Q303 residues) expressed in mammalian expression system at 10 uM by Kinomescan method relative to control
[28] = Solubility of the compound at pH 6.8; type: physicochemical; details: buffer

Work on O=C(Nc1cccc([C@@H]2CN(c3ncnc4[nH]ccc34)CCN2CCO)c1)Nc1c(F)cccc1N1CCCC1 yielded an inhibition [1] of 56%, an inhibition [2] of 20% and an inhibition [3] of 100%. For the same compound, the inhibition [4] was 99%, the inhibition [5] was 100% and the inhibition [6] was 100%. The inhibition [7] was 54%, the inhibition [8] was 78% and the inhibition [9] was 80%. For the same compound, the inhibition [10] was 100%, the inhibition [11] was 78% and the inhibition [12] was 96%. It also gave an inhibition [13] of 92%, an inhibition [14] of 11% and an inhibition [15] of 100%.

Work on O=C(Nc1cccc([C@H]2CCCN(c3ncnc4[nH]ccc34)C2)c1)Nc1ccccc1N1CCCC1 yielded an inhibition [16] of 100%, an inhibition [17] of 6.6% and an inhibition [18] of 88%. The inhibition [19] was 55%, the inhibition [20] was 88% and the inhibition [21] was 100%. It also gave an inhibition [22] of 100%, an inhibition [23] of 48% and an inhibition [24] of 18%. It also gave an inhibition [25] of 89%, an inhibition [26] of 99% and an inhibition [27] of 24%. The solubility [28] was < 1 µg/mL.
